Results from patent publication US9586993B2, “CD44v6-derived peptides for treating pancreatic cancer” (AMCURE GMBH, priority 2012, dated 2017).

Key:
Type in all cases: cell-based, human
[1] = test system: Met activation and downstream signaling to ERK; test: HGF-induced activation of Met and ERK in L3.6p1 cells (western blot); settings: HGF 10 ng/ml
Procedure: Serum-starved cells (24 hours) were induced with the growth factor HGF (10 ng/mL) at 37° C. for 5 minutes. Where indicated, the cells were treated with peptides (100 ng/ml) prior to induction at 37° C. for 10 minutes (100 ng/mL CD44v6 peptide or control peptide). Following the induction with HGF, cells were washed with ice-cold phosphate-buffered saline (PBS). To detect activated Met and Erk, cells were lysed in sodium dodecyl sulfate (SDS)-sample buffer containing 100 mM dithiothreitol (DTT), boiled and subjected to western blot analysis using antibodies against phospho-Met and ERK. The loading controls were performed on the same blot after stripping (62.5 mM Tris, pH 6.8, 2% SDS, 0.8% DTT) by probing with the Met respectively ERK antibody. Blots were stained using the enhanced chemiluminescence system (Thermo Fisher Scientific, Schwerte, Germany). Bands in western blot analysis were quantified with the program Image J (National Institutes of Health).
To expand the studies to human pancreatic tumors, the highly metastatic human pancreatic carcinoma cells L3.6p1 (Bruns, et al. Neoplasia (1999), 1(1):50-62) were investigated. These cells originate from the […] cells that have been passaged several times in the liver and the pancreas, a step that rendered them more and more metastatic. It was confirmed that Met is dependent on CD44v6 for its activation and signaling in these cells (FIG. 4A). The L3.6p1 cells were treated with HGF in the presence or absence of a human v6 peptide of SEQ ID NO: 2 or SEQ ID NO:6 and Met activation and downstream signaling to ERK was measured.

ErbB receptors = test: ErbB ligand-induced Erk-kinase phosphorylation in HT29 cells; settings: 100 ng/ml peptide; for inhibition of EGF-dependent Erk phosphorylation: 20 ng/ml EGF
Procedure: (§1) Serum-starved HT29 cells were pre-incubated for 5 min with 100 ng/ml of a CD44v6-specific peptide (human v6 14mer) or a control peptide. Afterwards the cells were induced with 20 ng/ml of various ErbB ligands as indicated. The cell lysates were resolved by SDS-PAGE. Western-blotting was used to detect ErbB ligands-induced Erk-kinase phosphorylation.
as §1, with “of” for “of a”, “(pep1=14mer, pep2=5mer)” for “(human v6 14mer)”, “EGF or TGFα and lysed.” for “various ErbB ligands as indicated.”, “EGF and TGFα induced” for “ErbB ligands-induced”
For this purpose HT29 cells were serum-starved for 24 hours and pre-treated with the v6-specific or a control peptide. They were then induced with the indicated ErbB ligands. Erk-kinase phosphorylation was used as a read-out for receptor activation. All ligands could activate the Erk-kinase.

Met = test: HGF-induced Met activation in HeLa cells (western blot); settings: HGF 25 ng/ml, peptide 10 minutes before induction
Procedure: FIG. 12: A: Activation of Met and signal transduction induced by HGF depends on CD44v6 in L3.6p1 cells. L3.6p1 cells were treated with the human v6 peptide (human v6 14mer) or the rat v6 peptide as control prior to induction with 10 ng/ml HGF. Activation of Met and ERK was determined in western blot. The numbers refer to the fold induction. The experiment was repeated at least 5 times. B: Activation of c-Met and signal transduction induced by HGF depends on CD44v6 HeLa cells. Starved HeLa cells respectively HT29 cells were incubated with the v6 peptide (human v6 14mer) or a control peptide for 10 minutes at 37° C. and then induced with 25 ng/ml of HGF for the indicated time points. Cells were then either lysed and the lysates were subjected to Western Blot analysis for phospho-Met and Met. C: Activation of c-Met and signal transduction induced by HGF depends on CD44v6 in HT29 cells. HGF-induced c-Met and Erk phosphorylation in HT29 was determined as described above using phospho-specific antibodies. […]
The contribution of CD44v6 to Met signaling in the human epithelial pancreatic cancer cells L3.6p1 (derived from Colo 357), the cervix carcinoma cells HeLa and the colon cancer cells HT29 were analysed using the CD44v6 peptide (v6 14mer; v6 5mer tested as well, data not shown).

KEQWFGNRWHEGYR [human 14mer, human CD44v6 14mer peptide]
inhibition of HGF-induced activation (phosphorylation) of Met and ERK [1]: able to prevent activation of Met and of its downstream target Erk
inhibition of HGF-induced activation (phosphorylation) of Met and ERK ([1]; listed as SEQ ID NO:6): Phosphorylation of both Met and ERK was inhibited
inhibition of EGF-dependent Erk phosphorylation (ErbB receptors; listed as human v6 14mer): inhibited
inhibition of EGF-dependent Erk phosphorylation (ErbB receptors; listed as pep1): can be blocked
inhibition of ER-dependent Erk phosphorylation (ErbB receptors; 20 ng/ml ER): inhibited
inhibition of ErbB receptor induction via TGF-α, BC, Her, HB-EGF or AR (Erk phosphorylation) (ErbB receptors; 20 ng/ml ligand): completely independent of CD44v6
inhibition of HGF-induced activation of Met and Erk (Met): able to prevent activation of Met and of its downstream target Erk
